Experimental findings from ChEMBL document CHEMBL1143513, “Structure-activity relationships for 2-anilino-6-phenylpyrido[2,3-d]pyrimidin-7(8H)-ones as inhibitors of the cellular checkpoint kinase Wee1” (Bioorg Med Chem Lett, 2005) are described below.

The nature of test [1]: Inhibition of c-Src tyrosine kinase.
Test [2] has as its target Fibroblast growth factor receptor (Homo sapiens, UniProt P22607+P11362+P22455+P21802). The test is described as follows: Inhibition of Fibroblast growth factor receptor. The format is protein assay.
The next test deals with Wee1-like protein kinase (Homo sapiens, UniProt P30291). Briefly: Inhibition of checkpoint kinase Wee1.
Test [3] in a line: Inhibition of Platelet-derived growth factor receptor.

Chain of Wee1-like protein kinase (P30291 whole entry): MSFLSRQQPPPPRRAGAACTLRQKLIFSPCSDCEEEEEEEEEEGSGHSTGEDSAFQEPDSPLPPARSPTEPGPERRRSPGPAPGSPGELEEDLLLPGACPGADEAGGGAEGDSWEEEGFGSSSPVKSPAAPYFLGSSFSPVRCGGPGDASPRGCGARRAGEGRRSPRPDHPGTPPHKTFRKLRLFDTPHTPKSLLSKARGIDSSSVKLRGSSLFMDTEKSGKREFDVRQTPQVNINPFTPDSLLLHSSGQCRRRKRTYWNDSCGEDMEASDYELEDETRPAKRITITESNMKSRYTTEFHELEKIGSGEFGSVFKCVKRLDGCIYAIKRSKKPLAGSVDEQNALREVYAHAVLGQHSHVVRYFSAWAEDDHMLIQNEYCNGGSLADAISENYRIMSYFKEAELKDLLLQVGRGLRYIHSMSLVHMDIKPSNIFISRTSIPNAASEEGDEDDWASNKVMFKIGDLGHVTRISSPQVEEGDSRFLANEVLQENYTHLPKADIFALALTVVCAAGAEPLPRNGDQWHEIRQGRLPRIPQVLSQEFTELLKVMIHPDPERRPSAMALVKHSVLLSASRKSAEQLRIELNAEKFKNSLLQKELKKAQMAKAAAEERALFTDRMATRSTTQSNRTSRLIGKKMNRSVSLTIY

Broadly, the IC50 is the concentration needed to halve the response being measured. `COc1cc(OC)cc(-c2cc3cnc(NCCCN4CCOCC4)nc3nc2NC(=O)NC(C)(C)C)c1`: the IC50 in test [1] is greater than 50000 nM; in test [2], 30 nM. As to `Cn1c(=O)c(-c2c(Cl)cccc2Cl)cc2cnc(Nc3ccc(CCCC(=O)OCCN4CCOCC4)cc3)nc21`, the IC50 amounted to 4 nM in test [1] and 95 nM at Wee1-like protein kinase. The corresponding values for `Cc1cccc(C)c1-c1cc2cnc(Nc3ccccc3)nc2n(C)c1=O` are 14 nM and 990 nM. Take `Cn1c(=O)c(-c2c(F)cccc2F)cc2cnc(Nc3ccccc3)nc21`: the values for the IC50 (in test [1]; against Wee1-like protein kinase) were 66 nM and 9700 nM, respectively.

Regarding `Cn1c(=O)c(-c2c(Cl)cccc2Cl)cc2cnc(Nc3ccc(OCC(N)=O)cc3)nc21`, the IC50 in test [1] amounted to 14 nM; against Wee1-like protein kinase, 250 nM.

Take `CCN(CC)CCOc1ccc(Nc2ncc3cc(-c4c(Cl)ccc(O)c4Cl)c(=O)n(C)c3n2)cc1`: the IC50 in test [1] came to 6 nM; at Wee1-like protein kinase it was 150 nM. As to `Cn1c(=O)c(-c2c(Cl)cccc2Cl)cc2cnc(Nc3ccccc3)nc21`, the IC50 is 24 nM in test [1] and 2600 nM on Wee1-like protein kinase. `CCN(CC)CCOc1ccc(Nc2ncc3cc(-c4c(Cl)cccc4Cl)c(=O)n(C)c3n2)cc1` [PD-0166285] registered an IC50 in test [3] of 79000 nM. For the compound `Cc1c(-c2ccccc2Cl)c(=O)n(C)c2nc(Nc3ccccc3)ncc12`, the IC50 in test [1] was greater than 50000 nM; against Wee1-like protein kinase it was 410 nM. Consider `Cn1c(=O)c(-c2c(Cl)cc(N)cc2Cl)cc2cnc(Nc3ccccc3)nc21`, for which the results for the IC50 (in test [1]; on Wee1-like protein kinase) were 270 nM and 3700 nM, respectively. With `CC(=O)Nc1cc(Cl)c(-c2cc3cnc(Nc4ccccc4)nc3n(C)c2=O)c(Cl)c1`, the values for the IC50 (in test [1]; against Wee1-like protein kinase) were 1500 nM and 3600 nM, respectively. As for `COc1cccc(O)c1-c1cc2cnc(Nc3ccccc3)nc2n(C)c1=O`, the values for the IC50 (in test [1]; against Wee1-like protein kinase) were 50 nM and 11000 nM, respectively. Take `Cn1c(=O)c(-c2c(Cl)ccc(CN)c2Cl)cc2cnc(Nc3ccccc3)nc21`: the IC50 in test [1] was 62 nM; against Wee1-like protein kinase, 31000 nM.

For `Cc1c(-c2ccccc2)c(=O)n(C)c2nc(Nc3ccccc3)ncc12`, the IC50 (in test [1]; against Wee1-like protein kinase) was greater than 50000 nM throughout.

`Cn1c(=O)c(-c2c(Br)cccc2Br)cc2cnc(Nc3ccccc3)nc21`: the IC50 amounted to 47 nM in test [1] and 410 nM against Wee1-like protein kinase.

Turning to `Cn1c(=O)c(-c2c(Cl)ccc(CO)c2Cl)cc2cnc(Nc3ccccc3)nc21`, the IC50 came to 39 nM in test [1] and 3500 nM against Wee1-like protein kinase. For the compound `Cc1cc(O)cc(C)c1-c1cc2cnc(Nc3ccccc3)nc2n(C)c1=O`, the IC50 in test [1] turned out to be 17 nM; against Wee1-like protein kinase, 580 nM. As for `CCN(CC)CCOc1ccc(Nc2ncc3cc(-c4c(C)cccc4C)c(=O)n(C)c3n2)cc1`, the IC50 in test [1] was 23 nM; on Wee1-like protein kinase it was 990 nM. The corresponding values for `Cn1c(=O)c(-c2c(Cl)cccc2Cl)cc2cnc(Nc3ccc(OCCCC(=O)O)cc3)nc21` are 4 nM and 86 nM. In the case of `Cc1cccc(Br)c1-c1cc2cnc(Nc3ccccc3)nc2n(C)c1=O`, the results for the IC50 (in test [1]; on Wee1-like protein kinase) were 58 nM and 4500 nM, respectively. As for `Cn1c(=O)c(-c2c(Cl)cccc2Cl)cc2cnc(Nc3ccc(CCCC4N=NN=N4)cc3)nc21`, the IC50 in test [1] came out at 25 nM; against Wee1-like protein kinase, 69 nM. Regarding `COc1cc(OC)c(C)c(-c2cc3cnc(Nc4ccccc4)nc3n(C)c2=O)c1C`, the IC50 in test [1] is 39000 nM; at Wee1-like protein kinase, 33000 nM. In the case of `Cn1c(=O)c(-c2c(Cl)cccc2Cl)cc2cnc(Nc3ccc(CCCC(=O)OCCN4CCCCC4)cc3)nc21`, the IC50 in test [1] amounted to 11 nM; against Wee1-like protein kinase it was 142 nM.

Regarding `Cn1c(=O)c(-c2c(Cl)ccc(O)c2Cl)cc2cnc(Nc3ccc(OCCCC(=O)O)cc3)nc21`, the IC50 in test [1] stood at 99 nM; at Wee1-like protein kinase it was 40 nM. Turning to `CCN(CC)CCOc1ccc(Nc2ncc3c(C)c(-c4ccccc4Cl)c(=O)n(C)c3n2)cc1`, the IC50 was greater than 50000 nM in test [1] and 550 nM on Wee1-like protein kinase. With `Cc1cccc(Cl)c1-c1cc2cnc(Nc3ccccc3)nc2n(C)c1=O`, the IC50 in test [1] was determined as 12 nM; against Wee1-like protein kinase, 1900 nM.

Consider `Cn1c(=O)c(-c2c(Cl)cc(O)cc2Cl)cc2cnc(Nc3ccccc3)nc21`, for which the IC50 in test [1] was determined as 73 nM; on Wee1-like protein kinase, 220 nM. For `CCN(CC)CCOc1ccc(Nc2ncc3c(C)c(-c4c(C)cccc4C)c(=O)n(C)c3n2)cc1`, the IC50 in test [1] was 360 nM; against Wee1-like protein kinase, 540 nM.

For the compound `Cn1c(=O)c(-c2c(Cl)c(O)cc(O)c2Cl)cc2cnc(Nc3ccccc3)nc21`, the IC50 in test [1] is 11 nM; against Wee1-like protein kinase, 140 nM.

In test [3], `CC(C)(C)NC(=O)Nc1nc2nc(N)ncc2cc1-c1c(Cl)cccc1Cl` displayed an IC50 of 1100 nM. As to `Cn1c(=O)c(-c2c(Cl)cccc2C(F)(F)F)cc2cnc(Nc3ccccc3)nc21`, the IC50 in test [1] was 210 nM; against Wee1-like protein kinase, greater than 50000 nM. As for `Cn1c(=O)c(-c2c(Cl)ccc(N)c2Cl)cc2cnc(Nc3ccccc3)nc21`, the figures for the IC50 (in test [1]; against Wee1-like protein kinase) were 90 nM and 2600 nM, respectively. For the compound `Cn1c(=O)c(-c2c(Cl)ccc(O)c2Cl)cc2cnc(Nc3ccccc3)nc21`, the IC50 in test [1] came to 9 nM; against Wee1-like protein kinase, 74 nM.

For the compound `COc1cc(C)c(-c2cc3cnc(Nc4ccccc4)nc3n(C)c2=O)c(C)c1`, the results for the IC50 (in test [1]; at Wee1-like protein kinase) were 250 nM and greater than 50000 nM, respectively. As to `Cn1c(=O)c(-c2c(O)cccc2Cl)cc2cnc(Nc3ccccc3)nc21`, the IC50 in test [1] was determined as 22 nM; at Wee1-like protein kinase it was 1500 nM.

Regarding `COc1cc(OC)cc(-c2cc3cnc(N)nc3nc2NC(=O)NC(C)(C)C)c1`, the IC50 in test [3] was greater than 50000 nM. In the case of `CC(=O)Nc1ccc(Cl)c(-c2cc3cnc(Nc4ccccc4)nc3n(C)c2=O)c1Cl`, the IC50 in test [1] is 780 nM; on Wee1-like protein kinase, greater than 50000 nM.

`Cc1cccc(C)c1-c1c(C)c2cnc(Nc3ccccc3)nc2n(C)c1=O`: the IC50 in test [1] was 15000 nM; against Wee1-like protein kinase it was 1200 nM. Take `COc1ccc(Cl)c(-c2cc3cnc(Nc4ccccc4)nc3n(C)c2=O)c1Cl`: the values for the IC50 (in test [1]; on Wee1-like protein kinase) were 540 nM and greater than 50000 nM, respectively. Take `COc1cc(Cl)c(-c2cc3cnc(Nc4ccccc4)nc3n(C)c2=O)c(Cl)c1`: the IC50 in test [1] is 6500 nM; at Wee1-like protein kinase, greater than 50000 nM. Turning to `Cc1ccc(Cl)c(-c2cc3cnc(Nc4ccccc4)nc3n(C)c2=O)c1Cl`, the IC50 was determined as 2800 nM in test [1] and 50000 nM against Wee1-like protein kinase. Regarding `COc1cccc(Cl)c1-c1cc2cnc(Nc3ccccc3)nc2n(C)c1=O`, the IC50 in test [1] turned out to be 120 nM; on Wee1-like protein kinase it was 3400 nM.

With `Cn1c(=O)c(-c2c(Cl)cccc2Cl)cc2cnc(Nc3ccc(CCC(N)=O)cc3)nc21`, the IC50 in test [1] is 30 nM; at Wee1-like protein kinase, 190 nM. On to `CCN(CC)CCOc1ccc(Nc2ncc3cc(-c4c(Cl)cc(O)cc4Cl)c(=O)n(C)c3n2)cc1`, for which the IC50 in test [1] is 8 nM; against Wee1-like protein kinase, 80 nM. `Cn1c(=O)c(-c2c(Cl)ccc(C(N)=O)c2Cl)cc2cnc(Nc3ccccc3)nc21`: the IC50 in test [1] came out at 130 nM; against Wee1-like protein kinase it was 8600 nM. Take `Cn1c(=O)c(-c2c(Cl)ccc(C(=O)O)c2Cl)cc2cnc(Nc3ccccc3)nc21`: the IC50 was 280 nM in test [1] and 3200 nM at Wee1-like protein kinase. The like results for `COc1cc(OC)c(Cl)c(-c2cc3cnc(Nc4ccccc4)nc3n(C)c2=O)c1Cl` were, in that order, greater than 50000 nM and greater than 50000 nM. For `COc1cccc(OC)c1-c1cc2cnc(Nc3ccccc3)nc2n(C)c1=O`, the IC50 was 980 nM in test [1] and greater than 50000 nM on Wee1-like protein kinase. For the compound `Cn1c(=O)c(-c2c(Cl)cccc2Cl)cc2cnc(Nc3ccc(CCCCC(N)=O)cc3)nc21`, the IC50 in test [1] is 28 nM; on Wee1-like protein kinase it was 260 nM. As for `Cn1c(=O)c(-c2c(F)cccc2Cl)cc2cnc(Nc3ccccc3)nc21`, the IC50 in test [1] was 43 nM; against Wee1-like protein kinase, 2400 nM. Consider `Cn1c(=O)c(-c2c(Cl)cc(Cl)cc2Cl)cc2cnc(Nc3ccccc3)nc21`, for which the figures for the IC50 (in test [1]; against Wee1-like protein kinase) were 330 nM and 8600 nM, respectively.

As for `CN(C)CCOC(=O)CCCc1ccc(Nc2ncc3cc(-c4c(Cl)cccc4Cl)c(=O)n(C)c3n2)cc1`, the results for the IC50 (in test [1]; on Wee1-like protein kinase) were 7 nM and 124 nM, respectively.

Regarding `Cn1c(=O)c(-c2c(O)cccc2O)cc2cnc(Nc3ccccc3)nc21`, the IC50 came to 720 nM in test [1] and 27000 nM on Wee1-like protein kinase.

As for `Cn1c(=O)c(-c2c(Cl)cccc2Cl)cc2cnc(Nc3ccc(CC(N)=O)cc3)nc21`, the IC50 in test [1] was 13 nM; against Wee1-like protein kinase, 120 nM. For the compound `Cn1c(=O)c(-c2c(Cl)cc(O)cc2Cl)cc2cnc(Nc3ccc(OCCCC(=O)O)cc3)nc21`, the IC50 in test [1] was found to be 6 nM; on Wee1-like protein kinase it was 40 nM.

Consider `Cc1c(O)cc(O)c(C)c1-c1cc2cnc(Nc3ccccc3)nc2n(C)c1=O`, for which the IC50 in test [1] was 110 nM; on Wee1-like protein kinase it was 1000 nM. On to `Cn1c(=O)c(-c2c(Cl)cccc2Cl)cc2cnc(Nc3ccc(CC(N)C(=O)O)cc3)nc21` (stereo not given), for which the results for the IC50 (in test [1]; at Wee1-like protein kinase) were 9 nM and 90 nM, respectively. Take `Cn1c(=O)c(-c2c(Cl)ccc(Cl)c2Cl)cc2cnc(Nc3ccccc3)nc21`: the figures for the IC50 (in test [1]; on Wee1-like protein kinase) were 270 nM and greater than 50000 nM, respectively. As to `Cn1c(=O)c(-c2c(C(F)(F)F)cccc2C(F)(F)F)cc2cnc(Nc3ccccc3)nc21`, the IC50 worked out at 8100 nM in test [1] and 41000 nM against Wee1-like protein kinase.
